Results reported in patent US9487486B2, “Derivatives of nicotinic acid N-oxide, their preparation and their use as inhibitors of enzyme 3-hydroxyanthranilate-3, 4-dioxygenase” (UNIVERSITY OF MARYLAND, BALTIMORE, priority 2011, dated 2016).

What was measured:
[1] = target: T1, 3-hydroxyanthranilate-3,4-dioxygenase (3HAO) (Rattus norvegicus, UniProt P46953); assay: In vitro 3HAO inhibition in rat brain homogenates; assay type: biochemical
T1 construct: One hundred μl of control Sprague Dawley rat brain homogenate; from tissue; host or cells: Sprague Dawley rat brain homogenate
T1 sequence (P46953 1-286): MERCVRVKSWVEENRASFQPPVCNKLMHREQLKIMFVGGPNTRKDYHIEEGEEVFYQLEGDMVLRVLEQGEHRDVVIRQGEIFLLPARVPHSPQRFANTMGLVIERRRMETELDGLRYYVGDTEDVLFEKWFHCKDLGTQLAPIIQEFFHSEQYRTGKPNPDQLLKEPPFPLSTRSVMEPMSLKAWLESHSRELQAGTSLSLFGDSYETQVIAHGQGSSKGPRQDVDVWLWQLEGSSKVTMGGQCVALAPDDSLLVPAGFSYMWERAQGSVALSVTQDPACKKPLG
Protocol: (§1) The following procedure has been carried out for all the six compounds prepared according to the Examples 1-6 above.
(§2) One hundred μl of control Sprague Dawley rat brain homogenate (1/10 dilution in bidistilled water) were further diluted (1/2, 5 v/v) with a 5 mM MES/NaOH buffer (pH 6.5) and incubated at 37° C. for 1 h in the presence of the radiolabeled substrate[14C]-3-hydroxyanthranilic acid (3.7 µM), ferrous ammonium sulphate (150 µM), ascorbic acid (0.01%). 20 μl of a solution (10 μM) of a compound of the invention were added prior to the addition of the radiolabeled substrate, for a total volume of 200 μl. The enzymatic reaction was stopped by adding 50 μl of 6% perchloric acid. The mixture was centrifuged for 5 min a 12.000 g and the supernatant was applied to a column packed with a cation-exchange resin (Dowex 50W, 0.5×2.0 cm; protonated form). [14C]-quinolinic acid formed by enzymatic reaction was eluted with 1 ml of distilled water. The eluate was added to scintillation liquid (Beckman, Ultima Gold) and radioactivity was measured with a is beta-counter.
(§3) The same procedure has been repeated by adding 20 μl of a solution (100 μM) of a compound of the invention and repeated by adding 20 μl of a solution (1000 μM) of a compound of the invention.

[2] = target: T2, 3-hydroxyanthranilate-3,4-dioxygenase (3HAO) (Homo sapiens, UniProt P46952); assay: In vitro 3HAO inhibition in human brain homogenates; assay type: biochemical
T2 construct: One hundred μl of healthy human brain homogenate; from tissue; host or cells: healthy human brain homogenate
T2 sequence (P46952 1-286): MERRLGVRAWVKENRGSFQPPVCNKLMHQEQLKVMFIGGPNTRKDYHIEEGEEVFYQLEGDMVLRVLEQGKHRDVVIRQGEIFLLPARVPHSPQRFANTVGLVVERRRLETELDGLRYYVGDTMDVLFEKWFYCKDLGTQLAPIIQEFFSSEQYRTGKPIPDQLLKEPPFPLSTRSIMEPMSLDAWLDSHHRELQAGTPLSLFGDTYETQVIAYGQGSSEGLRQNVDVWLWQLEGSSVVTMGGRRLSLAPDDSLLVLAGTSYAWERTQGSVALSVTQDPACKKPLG
Protocol: as §1
as §2, with “of healthy human” for “of control Sprague Dawley rat”, “(3.7 μM),” for “(3.7 µM),”, “(150 μM),” for “(150 µM),”, “substrate, to” for “substrate, for”, “a final” for “a total”, “a” for “a is”
as §3

[3] = test system: de novo production of QUIN in QUIN-lesioned rat brain; assay: In vivo de novo production of QUIN from 3H-kynurenine in QUIN-lesioned rat striatum; settings: 5 mM I3 co-infused intrastriatally with 3H-kynurenine, 7 days after lesion, 2 h, FIG. 1
Protocol: Quinolinic acid lesions in the rat striatum were made as described by Schwarcz et al. (1983), using 300 nmol quinolinic acid per injection. In vivo assays of I3 in the lesioned striatum were performed 7 days later. [Schwarcz R, Whetsell W O Jr, Mangano R M (1983) Quinolinic acid: an endogenous metabolite that produces axon-sparing lesions in rat brain. Science 219:316-8.]
Intrastriatal injection of 3H-kynurenine: two months-old male Sprague-Dawley rats were anesthetized with chloral hydrate (360 mg/kg, i.p.) and mounted in a David Kopf stereotaxic apparatus (Tujunga, Calif.). Through a small burr hole in the skull, […] of 3H-kynurenine [in phosphate-buffered saline (PBS), pH 7.4] was infused (6 μL over 10 min) intrastriatally. 3H-kynurenine was infused in the absence or presence of 5 mM I3. The injection coordinates were: AP: 1.0 mm anterior to bregma, L: 2.6 mm from the midline, V: 4.8 mm below dura. Animals were euthanized 2 h later and the striatum was dissected out, frozen on dry ice and stored at −80° C. Subsequently, the tissue was processed for the determination of tritiated neuroactive products of KP metabolism. […]
Analysis of 3H-quinolinic acid: the analysis of tritiated quinolinic acid derived from 3H-kynurenine was performed essentially as described by Guidetti et al. (1995). […] Tritiated quinolinic acid was detected radiometrically (Beta-Ram; IN/US Systems, Tampa, Fla.). […]

[4] = Chemical stability over time in phosphate buffer (HPLC); assay type: physicochemical; settings: phosphate buffer pH 7.5; 10 and 100 μM; 37° C.; 24 h; FIG. 2
Protocol: Compound I3 was dissolved in a phosphate buffer at pH 7.5 at two different concentrations (10 and 100 μM). The resulting solutions were incubated at 37° C. for 24 h.
Chromatographic analyses were performed with a HPLC system (Shimadzu Corp., Kyoto, Japan), endowed with a UV/VIS detector, and the samples were eluted with a mixture containing methanol (0.05% TFA)/water (0.25% TFA)=20/80 at a flow rate of 1 ml/min.

[5] = 10 μM compound, rat brain homogenate
[6] = 100 μM compound, rat brain homogenate
[7] = 1000 μM compound, rat brain homogenate (I1-I3 table)
[8] = 10 μM compound, human brain homogenate
[9] = 100 μM compound, human brain homogenate
[10] = 1000 μM compound, human brain homogenate (I1-I3 table)
[11] = 1000 μM compound, rat brain homogenate (I4-I6 table)
[12] = 1000 μM compound, human brain homogenate (I4-I6 table)

| SMILES | % inibition of 3HAO (r) [1, 5] [%] | % inibition of 3HAO (r) [1, 6] [%] | % inibition of 3HAO (r) [1, 7] [%] | % inibition of 3HAO (h) [2, 8] [%] | % inibition of 3HAO (h) [2, 9] [%] | % inibition of 3HAO (h) [2, 10] [%] | % inibition of 3HAO (r) [1, 11] [%] | % inibition of 3HAO (h) [2, 12] [%] | Effect on brain level of QUIN (de novo 3H-quinolinic acid production) [3] | Chemical stability (HPLC) [4] |
| --- | --- | --- | --- | --- | --- | --- | --- | --- | --- | --- |
| Nc1c(C(=O)O)ccc(Cl)[n+]1[O-] [Compound I2, 2-amino-6-chloronicotinic acid N-oxide] | 22 | 76 | 99 | 42 | 100 | 100 | – | – | – | – |
| CC(C)c1cc(C(C)C)[n+]([O-])c(N)c1C(=O)O [Compound I6, 2-amino-4,6-diisopropylnicotinic acid N-oxide] | – | – | – | – | – | – | 70 | 60 | – | – |
| Cc1ccc(C(=O)O)c(N)[n+]1[O-] [Compound I3, 2-amino-6-methylnicotinic acid N-oxide] | 78 | 97 | 99 | 80 | 100 | 100 | – | – | able to block the abnormal de novo production of QUIN under excitotoxic conditions | complete chemical stability |
| Nc1c(C(=O)O)ccc[n+]1[O-] [Compound I1, 2-aminonicotinic acid N-oxide] | 49 | 90 | 97 | 66 | 93 | 96 | – | – | – | – |

Second part, led by results:

| % inibition of 3HAO (r) [1, 5] [%] | % inibition of 3HAO (r) [1, 6] [%] | % inibition of 3HAO (r) [1, 7] [%] | % inibition of 3HAO (h) [2, 8] [%] | % inibition of 3HAO (h) [2, 9] [%] | % inibition of 3HAO (h) [2, 10] [%] | % inibition of 3HAO (r) [1, 11] [%] | % inibition of 3HAO (h) [2, 12] [%] | SMILES | Effect on brain level of QUIN (de novo 3H-quinolinic acid production) [3] | Chemical stability (HPLC) [4] |
| --- | --- | --- | --- | --- | --- | --- | --- | --- | --- | --- |
| – | – | – | – | – | – | 80 | 70 | Cc1cc(-c2ccccc2)c(C(=O)O)c(N)[n+]1[O-] [Compound I5, 2-amino-4-phenyl-6-methylnicotinic acid N-oxide] | – | – |
| – | – | – | – | – | – | 15 | 23 | Cc1ccc(C(N)=O)c(N)[n+]1[O-] [Compound I4, 2-amino-6-methylnicotinamide N-oxide] | – | – |
